Source: a melting point compilation (Tetko et al.)

Row | SMILES | melting point
1 | O=[N+]([O-])c1cc(C(F)F)c(Nc2ncc(C(F)(F)F)cc2Cl)c([N+](=O)[O-])c1 | 90 °C
2 | O=[N+]([O-])c1cc(Cl)c(O)c(Cl)c1 | 127 °C
3 | Ic1ccccc1I | 27 °C
4 | Cc1cc(Br)cnc1Cl | 40 to 44 °C
5 | c1cc2c(cc1CN1CCNCC1)OCO2 | 43 °C
6 | Cc1ccc(C(=O)c2ccccc2)cc1 | 59.5 °C
7 | O=C(O)COc1ccc([N+](=O)[O-])cc1 | 182 to 188 °C
8 | Cc1nc(-c2ccc(C=O)cc2)cs1 | 101 to 102 °C
9 | O=C(NCCBr)c1cc([N+](=O)[O-])cc([N+](=O)[O-])c1 | 140 °C
10 | N#C/C(=C\c1ccccc1O)c1nc2ccccc2s1 | 188 °C
11 | O=Cc1ccccc1-n1cccn1 | 58 °C
12 | COc1ccc(C=CNNc2nc(C)cc(C)n2)cc1 | 179 to 182 °C
13 | O=Cc1cc(Br)ccc1Br | 95 °C
14 | Clc1nc2ccccc2s1 | 31.5 °C
15 | CC12CCCC1C1CCC3CC(OCc4ccccc4)CCC3(C)C1CC2 (stereo not given) | 148 °C
16 | N=C(c1ccccc1)c1ccccc1 | -30 °C
17 | CCC(C)CCC(C)(O)CC (stereo not given) | -67.5 °C
18 | COc1ccc(-c2ccc(S(=O)(=O)Cl)cc2)cc1 | 103 to 106 °C
19 | OCC(F)(F)C(F)(F)C(F)(F)C(F)(F)C(F)(F)C(F)(F)C(F)(F)C(F)(F)CO | 132 to 137 °C
20 | COc1cc(N=C=O)cc(OC)c1OC | 40 °C
21 | C#CCOc1cc(-n2nc(C(C)(C)C)oc2=O)c(Cl)cc1Cl | 131 °C
22 | CCCCCCN1CCCC1=O | 4 °C
23 | c1ccc2c(c1)CCCN2 | 20 °C
24 | O=C1C(C(Br)C2(Br)C(=O)N(c3ccccc3)N=C2c2ccc([N+](=O)[O-])cc2)C(c2ccc([N+](=O)[O-])cc2)=NN1c1ccccc1 (stereo not given) | 308 to 310 °C
25 | CC(N)(Cc1ccc(O)cc1)C(=O)O (stereo not given) | 312 °C
26 | CC1CCc2ccccc2C1 (stereo not given) | -43.1 °C

Row | SMILES | melting point
27 | O=C1CC2C(CC(O)C2CO)O1 (single isomer, unassigned; (-)) | 114 to 118 °C
28 | NC(=S)c1ccc2occc2c1 | 98.6 °C
29 | Nc1cccc(Br)n1 | 90 °C
30 | Nc1c(Br)cc(Br)cc1C(F)(F)F | 42 °C
31 | CCc1[nH]c2ccccc2c1C | 62 to 65 °C
32 | O=Cc1ccc(N2CCCC2)cc1 | 85 °C
33 | CCNc1nc2c(cc1C(=O)OCC)c(=O)oc1ccccc12 | 186 °C
34 | c1ccc(-c2cccs2)cc1 | 34 to 36 °C
35 | O=C(O)/C=C/c1cccc2c(Br)cccc12 | 269 to 270 °C
36 | O=C(OCc1ccccc1)c1ccccc1O | 19 °C
37 | CC(C)CC(C)O (stereo not given) | -90 °C
38 | Cc1cc(=O)[nH]cc1Br | 196 to 201 °C
39 | Clc1nccc(-c2ccco2)n1 | 81.5 to 82.5 °C
40 | Cc1cc2cc3cc(C)[nH]c3cc2[nH]1 | > 170 °C
41 | O=C(NO)OCc1ccccc1 | 68 °C
42 | CCCCCCCCc1ccc(N)cc1 | 20 °C
43 | O=C1CC(c2ccccc2)=NO1 | 150 to 154 °C
44 | Cc1cc(C)cc(S(=O)(=O)Cl)c1 | 93 °C
45 | Cc1ccccc1NC(=O)c1cnc(C(C)(C)C)cn1 | 81 °C
46 | CC1=CCC(C(C)C)=CC1 | -10 °C
47 | N#C/C(=N/Nc1cccc(C(F)(F)F)c1)C(=O)c1cccs1 | 173 °C
48 | Cc1noc(-c2ccccc2C=O)n1 | 66 to 68 °C
49 | CC1(C)OC(C)(C(C)(C)O)CCC1C(=O)O (stereo not given) | 111 °C
50 | Nc1ccc(Br)c(F)c1 | 68 °C
51 | O=C(CC(=O)c1cc(Cl)ccc1O)c1ccccc1 | 107 to 112 °C
52 | Nc1ccnc2ccccc12 | 155 °C

Row | SMILES | melting point
53 | O=C(O)c1cccc(-c2ccccc2)c1 | 167 °C
54 | O=C1c2ccccc2C(=O)N1Br | 206 °C
55 | O=C(c1ccc(Br)cc1)c1noc(-c2ccc([N+](=O)[O-])cc2)c1S(=O)(=O)c1ccccc1 | 200 to 202 °C
56 | N#CC(C#N)=C1C(=O)NN(c2ccccc2)C1=O | 289 °C
57 | NC(N)=NCCCCCCCCNCCCCCCCCN=C(N)N | 60 °C
58 | O=Cc1cnc2ccccc2c1 | 68 to 71 °C
59 | COc1ccc(S(N)(=O)=O)c(OC)c1 | 168 °C
60 | Nc1ccc(C#Cc2ccc(N)cc2)cc1 | 235 to 236 °C
61 | CSC(SC)=C(C#N)C(=O)c1cccc(C)c1 | 53 to 55 °C
62 | CN1C(=O)c2ccccc2C1O (stereo not given) | 133 °C
63 | BrCCCCCCCBr | 41.7 °C
64 | CS(=O)(=O)c1ccc2c(c1)N(CCCN1CCC(C(N)=O)CC1)c1ccccc1S2 | 170 °C
65 | Cc1ccccc1NN=C1C(=O)NC(=S)NC1=O | 242 °C
66 | COc1ccc(/C=C2\CCCC3=C2NC(=S)NC3c2ccc(OC)cc2)cc1 (stereo not given) | 184 °C
67 | COC(=O)c1sc(SC)nc1N | 104 °C
68 | CN(C)c1ccc(N=C=S)cc1 | 69 to 71 °C
69 | Oc1c(I)cc(I)c2cccnc12 | 210 °C
70 | COc1ccc2c(c1)c(C=O)cn2C | 135 °C
71 | CC(C)(C)c1ccc(N)c(N)c1 | 98 to 100 °C
72 | CC(C)(C)OC(=O)N[C@@H](CCC(=O)OCc1ccccc1)C(=O)O | 65 to 68 °C
73 | O[C@@H]1CC2=C(CCCC2)C[C@@H]1O | 120 to 121 °C
74 | FC(F)(F)c1cc(P(c2cc(C(F)(F)F)cc(C(F)(F)F)c2)c2cc(C(F)(F)F)cc(C(F)(F)F)c2)cc(C(F)(F)F)c1 | 100 °C
75 | O=C(O)CCCc1ccc2c(c1)OCCO2 | 76 to 78 °C
76 | Nc1nc(Cl)c2ncn(C3OC(CO)C(O)C3O)c2n1 (stereo not given) | 166 to 167 °C
77 | O=C(Oc1ccc(Cl)cc1Cl)c1ccc(C(=O)Oc2ccc(Cl)cc2Cl)cc1 | 217 °C
78 | Oc1ccc(F)c(Cl)c1 | 41 °C

Row | SMILES | melting point
79 | Cc1occc1C(=O)CC#N | 95 to 97 °C
80 | NC(=O)C(F)(F)C(F)(F)C(F)(F)C(F)(F)C(F)(F)C(F)(F)F | 136 °C
81 | CCNc1ccc2ccccc2c1N=Nc1ccc(N=Nc2ccccc2)cc1 | 130 °C
82 | Cc1cc(C)cc(CC#N)c1 | 44 °C
83 | CCCCCCCCCCNC(=O)C(C(F)(F)F)C(F)(F)F | 66 °C
84 | COC(=O)c1cc(Br)ccc1NC(C)=O | 134 °C
85 | Clc1cccc(O[Si]23OCCN(CCO2)CCO3)c1 | 245 °C
86 | COC(=O)C1CC(=O)N(C)C1 (stereo not given) | 15 °C
87 | O=Cc1ccc(-c2cccs2)s1 | 57 to 58 °C
88 | O=C=Nc1ccc2c(c1)OCCOCCOCCOCCO2 | 35 to 39 °C
89 | O=C(O)COCCN1C(=O)c2ccccc2C1=O | 128 °C
90 | O=c1[nH]c2ccccc2n1CCCN1CCN(C(c2ccccc2)c2ccccc2)CC1 | 154 °C
91 | COc1c(OC)c(OC(C)=O)c2cc(C#N)ccc2c1OC(C)=O | 124 °C
92 | O=C(O)CNC(=O)c1ccccc1O | 168 °C
93 | CC1(C)Cc2cccc(C=O)c2O1 | 81 to 83 °C
94 | C=Cc1ccc(C(=O)OC)cc1 | 36 °C
95 | C=CCn1c2c(c3cc(OC)ccc31)CCc1cc(OC)ccc1-2 | 92 to 93 °C
96 | COC(=O)[C@H]1OC(c2ccc(OC)c(OC)c2)([C@@H](C)Br)O[C@@H]1C(=O)OC | 97.3 °C
97 | O=C(c1cc2ccccc2o1)c1cc2ccccc2o1 | 174 to 175 °C
98 | CC(=O)NCCN | 47 °C
99 | O=C(O)c1nc2ccccc2nc1O | 267 to 268 °C
100 | Cc1nn(C)c2ncc3c(=O)[nH]n(C)c3c12 | 300 °C
101 | O=S(=O)(Cl)c1ccc(Oc2ccccc2Cl)cc1 | 89 to 90 °C
102 | Clc1cccc2cc3c(Cl)cccc3cc12 | 189 °C
103 | COc1ccc(F)cc1CBr | 60 °C
104 | O=C(CCCN1CCC(n2c(=S)[nH]c3ccccc32)CC1)c1ccc(F)cc1 | 202 °C

Row | SMILES | melting point
105 | CC1CC2C3CC(F)C4=CC(=O)C=CC4(C)C3(F)C(O)CC2(C)C1C(=O)CO (stereo not given) | 242 °C
106 | CCCCCCCCCCc1cc(-c2cc(-c3ccccc3)c3ccccc3n2)sc1-c1sc(-c2cc(-c3ccccc3)c3ccccc3n2)cc1CCCCCCCCCC | 21.9 °C
107 | O=C(O)c1ccc(-n2nc(C(=O)c3cccs3)s/c2=N\C(=O)c2ccccc2)cc1 | 219 °C
108 | CCCCCCCCCCCCC#N | 9.7 °C
109 | CCOC(=O)c1cccnc1-c1ncccc1C(=O)OCC | 90 °C
110 | OCc1cccc(COc2ccccc2)c1 | 58 to 60 °C
111 | CC(C)(c1ccc(OC(=O)Cl)cc1)c1ccc(OC(=O)Cl)cc1 | 90 to 95 °C
112 | OC(CCl)C(O)CCl (stereo not given) | 126 °C
113 | CCN(CC)C(=O)c1cccnc1 | 25 °C
114 | COc1cc(OC)c(Cl)cc1N | 89 to 92 °C
115 | CCOC(=O)c1c(-c2ccccc2)csc1NC(=O)CCl | 99 to 100 °C
116 | Oc1ccc(I)cn1 | 190 °C
117 | Clc1ccc2c(c1)Oc1cc(Cl)c(Cl)c(Cl)c1O2 | 172 °C
118 | C=C(C)CCCCCCCCCCCCC | -7 °C
119 | ClCc1ccc2c(c1)OCO2 | 20.5 °C
120 | Clc1cc(-c2ccccn2)nc(-c2ccccn2)c1 | 150 °C
121 | CN(C)C(=O)c1ccccc1 | 44 °C
122 | Cc1nc2ccccn2c1C(=O)O | 140 to 142 °C
123 | Cc1cc2cc3ccccc3cc2cc(C)c1=O | 182 °C
124 | N#Cc1ccc2sccc2c1 | 69 to 71 °C
125 | Cc1ccc2cc[nH]c2c1 | 31 °C
126 | Cc1cccc(OCC(=O)O)c1 | 104 °C
127 | CC(COc1ccc(Oc2ccccc2)cc1)Oc1ccccn1 (stereo not given) | 49 °C
128 | ClC=CBr | -86.7 °C
129 | COC(=O)c1ccc(C2(C)C=CC=CC=C2)cc1 | 61 °C
130 | Cc1ccncc1CNC(=O)c1ccccc1 | 112 °C
